In brackets after ≈: the same amount, converted by molar mass.
Legend:
[1] = system: Staphylococcus aureus (MRSA, ATCC 33591); test: Mouse MRSA systemic infection model, survival rate; assay type: in vivo; details: MRSA-infected mice, 5, 10, 20 mg/kg single intraperitoneal injection 1 hour after infection, 7-day survival
Protocol: (§1) Establishment of a mouse model of MRSA systemic infection
(1) Solution preparation and bacterial activation: Reference Example 15.
(§2) (2) Pretreatment: All mice received cyclophosphamide treatment, with the first intraperitoneal injection of 150 mg/kg cyclophosphamide 4 days before infection and the second intraperitoneal injection of 100 mg/kg cyclophosphamide 1 day before infection.
(3) Control group treatment: Mice in the blank control group received intraperitoneal injection of 0.9% saline.
(4) Infection process: Mice were anesthetized with isoflurane and infected by intraperitoneal injection of Staphylococcus aureus (MRSA, ATCC 33591) at a concentration of 10^7 CFU/mL.
(1) Experimental groups: The doses of compound i and valnemulin were 5, 10, and 20 mg/kg, respectively (the solvent was dimethyl sulfoxide: Tween-80: sterile water=1:0.5:9.5);
A model control group (administered with a solvent after infection with bacteria) and a blank control group (administered with a solvent only without infection with bacteria) were set up, with 10 mice in each group, half of which were male and half were female.
(2) Time point: Intraperitoneal injection was performed in the experimental group mice at 1 hour after infection.
(3) Therapeutic dose: The mice in the experimental groups received intraperitoneal injection of 0.5 mL of compound i and valnemulin at different concentrations. […]

A549 Cells = test: Cytotoxicity, Cell Counting Kit-8; assay type: cell-based; details: human, 24 h
Protocol: (§3) Cell Counting Kit-8 was used to evaluate the cytotoxicity of the compounds.
(§4) (4) Cell culture: HepG2, HEK293 and A549 cells were evenly dispersed in culture medium, seeded into 96-well plates, and cultured under appropriate environmental conditions to keep the cells completely attached to the well walls.
(§5) (5) Compound treatment: Add different concentrations of compounds I-8 and I-9 to each well (the concentrations are 0.78, 1.56, 3.13, 6.25, 12.5, 25, 50 and 100 μM, respectively, and perform 6 parallel experiments). Set up a blank control group and a normal control group. After incubation for 24 hours, observe the cell condition, which observed under a microscope.
(§6) (6) CCK-8 solution treatment: Add CCK-8 solution to each well and incubate for 4 hours to allow it to react with the cells.
(§7) (7) Absorbance determination: Use a full-wavelength scanning multifunctional reader, place the 96-well plate in the instrument, oscillate to mix to make the color evenly distributed, and measure the absorbance value at 490 nm.
(§8) (8) Data analysis: Based on the measured absorbance values, the cell survival rate at different concentrations can be calculated. The median cytotoxic concentration was used to evaluate the cytotoxicity of the compound to A549, HEK293 and HepG2 cells.

HepG2 Cells = test: Cytotoxicity, Cell Counting Kit-8; assay type: cell-based; details: human, 24 h
Protocol: as §3, §4, §5, §6, §7, §8

HEK293 Cells = test: Cytotoxicity, Cell Counting Kit-8; assay type: cell-based; details: human, 24 h
Protocol: as §3, §4, §5, §6, §7, §8

[2] = system: Staphylococcus aureus (MRSA, ATCC 33591); test: Mouse MRSA systemic infection model, H&E tissue sections; assay type: in vivo; details: MRSA-infected mice
Protocol: as §1, §2
(4) Infection process: Mice were anesthetized with isoflurane and infected by intraperitoneal injection of Staphylococcus aureus (MRSA, ATCC 33591) at a concentration of 10^7 CFU/mL. […]
(2) Processing: • (a) Time point: At the first hour after infection, mice in the experimental group received intraperitoneal injection of 0.5 mL of compounds of different concentrations, while mice in the control group received the same volume of solvent. • (b) Treatment time: […]
Part II: The samples were fixed with 10% formalin buffer, then embedded in paraffin and sectioned. The sections were stained with hematoxylin and eosin (H&E) and then examined under an optical microscope.

S. aureus ATCC 29213 = test: MIC, broth microdilution; assay type: cell-based; details: Staphylococcus aureus, ATCC29213, read-out: Minimum inhibitory concentration S.a.^d
Protocol: (§9) The minimum inhibitory concentration of 3H-imidazo[4,5-C]pyridine pleuromutilin onium salt derivatives against the tested pathogenic microorganisms were determined by broth microdilution method, with valnemulin and retapamulin as positive controls.
(§10) The experimental strains included resistant Gram-positive bacteria: Methicillin-resistant S. aureus ATCC 33591; Methicillin-resistant S. aureus ATCC 43300; S. aureus ATCC 29213; Methicillin-resistant S. epidermidis ATCC 51625. Resistant Gram-negative bacteria: A. baumannii ATCC 19606; S. enterica ATCC14028; E. coli ATCC 25922; E. coli CMCC 44103. 9 clinically isolated resistant strains: MRSA-171; MRSA-575; MRSA-206; MRSA-222; MRSA-596; VRE-80; MDR-PA-126; MDR-KP-893; CR-AB-882.
(§11) (1) Preparation of MHB medium: Weigh 18.0 g of MHB medium pre-made powder, add it to 1 L of distilled water, heat and boil until completely dissolved, divide it into conical bottles, sterilize it by high pressure at 121° C. for 15 minutes, and set aside.
(§12) (2) Cultivate the experimental strain to the logarithmic growth phase: Under sterile conditions, inoculate the experimental strain into fresh MHB medium and culture it in a 37° C. constant temperature and humidity incubator for 16-24 hours. Adjust the bacterial solution concentration to 1.5×10^8 CFU/mL and then dilute it 200 times for later use.
(§13) (3) Preparation of storage solution: Weigh the sample to be tested, dissolve it in 1% DMSO solution, and prepare a storage solution with a concentration of 2560 μg/mL; weigh the positive control, dissolve it in sterile distilled water, and prepare a storage solution with a concentration of 2560 μg/mL.
(§14) (4) Preparation of bacterial suspension: Under sterile conditions, the experimental strain cultured to the logarithmic growth phase was calibrated to a 0.5 McFarland unit turbidity standard using MHB medium and then diluted at a ratio of 1:200 to prepare a bacterial suspension with a concentration of 5×10^5 CFU/mL for later use.
(§15) (5) Determination of MIC by two-fold microdilution method: Take a sterile 96-well plate, add 10 μL of the test compound at a concentration of 2560 μg/mL, and perform serial dilutions by the two-fold dilution method. At the same time, set up a negative control group without drug. Then add 190 μL of diluted bacterial solution to each well, so that the final bacterial solution concentration in each well is 5×10^5 CFU/mL, and incubate in a 37° C. constant temperature and humidity chamber for 24 hours.

E. coli ATCC 25922 = test: MIC, broth microdilution; assay type: cell-based; details: Escherichia coli, ATCC25922, read-out: Minimum inhibitory concentration E.c.^h
Protocol: as §9, §10, §11, §12, §13, §14, §15

[3] = system: Methicillin-resistant S. epidermidis ATCC 51625; test: MIC, broth microdilution; assay type: cell-based; details: Staphylococcus epidermidis, ATCC 51625 / MRSE, read-out: Minimum inhibitory concentration MRSE^e
Protocol: as §9, §10, §11, §12, §13, §14, §15

[4] = system: Methicillin-resistant S. aureus ATCC 33591; test: MIC, broth microdilution; assay type: cell-based; details: Staphylococcus aureus, ATCC 33591 / MRSA, read-out: Minimum inhibitory concentration MRSA^b
Protocol: as §9, §10, §11, §12, §13, §14, §15

[5] = system: Methicillin-resistant S. aureus ATCC 43300; test: MIC, broth microdilution; assay type: cell-based; details: Staphylococcus aureus, ATCC 43300 / MRSA, read-out: Minimum inhibitory concentration MRSA^c
Protocol: as §9, §10, §11, §12, §13, §14, §15

S. enterica ATCC14028 = test: MIC, broth microdilution; assay type: cell-based; details: Salmonella enterica, ATCC14028, read-out: Minimum inhibitory concentration S.e.^g
Protocol: as §9, §10, §11, §12, §13, §14, §15

E.coli CMCC 44103 = test: MIC, broth microdilution; assay type: cell-based; details: Escherichia coli, CMCC44103, read-out: Minimum inhibitory concentration E.c.^i
Protocol: as §9, §10, §11, §12, §13, §14, §15

A. baumannii ATCC 19606 = test: MIC, broth microdilution; assay type: cell-based; details: Acinetobacter baumannii, ATCC19606, read-out: Minimum inhibitory concentration A.b.^f
Protocol: as §9, §10, §11, §12, §13, §14, §15

[6] = 5 mg/kg compound i, intraperitoneal

With `C=C[C@]1(C)C[C@@H](OC(=O)CSC(C)(C)CNC(=O)[C@H](N)C(C)C)[C@]2(C)[C@H](C)CC[C@]3(CCC(=O)[C@H]32)[C@@H](C)[C@@H]1O` [Valnemulin, reference compound] the “survival rate of mice” value [1] was “improved”, the CC50 (A549 Cells) was 53.7 µM and the CC50 (HepG2 Cells) was 77.3 µM. The CC50 (HEK293 Cells) was 65.4 µM, the “kidney H&E histology” value [2, 6] was “inflammatory cell infiltration was still observed” and the “liver H&E histology” value [2, 6] was “still had inflammatory cell infiltration”. For the same molecule, the “lung H&E histology” value [2, 6] was “alleviated, but they still did not return to normal”, the “spleen H&E histology” value ([2]; 5 mg/kg, after 7 days of treatment) was “immune response was weakened” and the MIC (S. aureus ATCC 29213) was 4 µg/mL (≈ 7.08 µM). The MIC (E. coli ATCC 25922) was 16 µg/mL (≈ 28.3 µM), the MIC [3] was 64 µg/mL (≈ 113 µM) and the MIC [4] was 64 µg/mL (≈ 113 µM). It also gave an MIC [5] of 8 µg/mL (≈ 14.2 µM), an MIC (S. enterica ATCC14028) of 64 µg/mL (≈ 113 µM) and an MIC (E.coli CMCC 44103) of 64 µg/mL (≈ 113 µM). It also gave an MIC (A. baumannii ATCC 19606) of 2 µg/mL (≈ 3.54 µM).

Reference: patent US12275734B1, “Pleuromutilin onium salt derivative containing a 3H-imidazo[4,5-c]pyridine side chain, and a preparation method and application thereof” (SHAANXI UNIVERSITY OF SCIENCE AND TECHNOLOGY, priority 2024, dated 2025)
